Experimental data from patent US11572369B2, “Bicyclic pyridine compositions and methods of using the same for cancer therapy” (UNIVERSITY OF SOUTH CAROLINA, priority 2019, dated 2023).

Tests used:
Test in all cases: KINOMEscan
Type in all cases: binding
Conditions in all cases: 2000 nM
CDK3 = target: T1, CDK3 (Homo sapiens, UniProt Q00526)
T1 construct: purchased DiscoverX (KINOMEscan service)

PLK3 = target: T2, PLK3 (Homo sapiens, UniProt Q9H4B4)
T2 construct: purchased DiscoveRx (KINOMEscan scanMAX panel)
T2 sequence (Q9H4B4 whole entry): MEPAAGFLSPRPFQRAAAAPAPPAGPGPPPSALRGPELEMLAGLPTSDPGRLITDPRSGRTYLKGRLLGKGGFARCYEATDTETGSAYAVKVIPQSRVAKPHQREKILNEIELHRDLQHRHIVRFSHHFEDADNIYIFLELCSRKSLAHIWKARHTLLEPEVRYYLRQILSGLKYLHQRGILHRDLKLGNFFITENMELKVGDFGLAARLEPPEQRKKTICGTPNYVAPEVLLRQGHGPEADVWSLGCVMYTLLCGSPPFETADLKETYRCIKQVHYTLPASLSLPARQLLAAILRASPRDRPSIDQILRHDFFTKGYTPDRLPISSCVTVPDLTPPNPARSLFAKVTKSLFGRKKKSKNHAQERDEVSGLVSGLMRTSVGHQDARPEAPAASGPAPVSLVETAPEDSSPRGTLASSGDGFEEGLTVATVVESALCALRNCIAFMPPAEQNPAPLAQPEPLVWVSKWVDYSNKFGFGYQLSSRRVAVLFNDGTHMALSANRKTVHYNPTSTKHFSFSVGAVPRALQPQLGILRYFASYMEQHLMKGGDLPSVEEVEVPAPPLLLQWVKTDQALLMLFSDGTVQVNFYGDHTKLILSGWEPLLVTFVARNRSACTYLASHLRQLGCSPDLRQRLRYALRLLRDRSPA

PKN2 = target: T3, PKN2 (Homo sapiens, UniProt Q16513)
T3 construct: DNA label (qPCR read-out); purchased KINOMEscan (DiscoveRx) panel
T3 sequence (Q16513 whole entry): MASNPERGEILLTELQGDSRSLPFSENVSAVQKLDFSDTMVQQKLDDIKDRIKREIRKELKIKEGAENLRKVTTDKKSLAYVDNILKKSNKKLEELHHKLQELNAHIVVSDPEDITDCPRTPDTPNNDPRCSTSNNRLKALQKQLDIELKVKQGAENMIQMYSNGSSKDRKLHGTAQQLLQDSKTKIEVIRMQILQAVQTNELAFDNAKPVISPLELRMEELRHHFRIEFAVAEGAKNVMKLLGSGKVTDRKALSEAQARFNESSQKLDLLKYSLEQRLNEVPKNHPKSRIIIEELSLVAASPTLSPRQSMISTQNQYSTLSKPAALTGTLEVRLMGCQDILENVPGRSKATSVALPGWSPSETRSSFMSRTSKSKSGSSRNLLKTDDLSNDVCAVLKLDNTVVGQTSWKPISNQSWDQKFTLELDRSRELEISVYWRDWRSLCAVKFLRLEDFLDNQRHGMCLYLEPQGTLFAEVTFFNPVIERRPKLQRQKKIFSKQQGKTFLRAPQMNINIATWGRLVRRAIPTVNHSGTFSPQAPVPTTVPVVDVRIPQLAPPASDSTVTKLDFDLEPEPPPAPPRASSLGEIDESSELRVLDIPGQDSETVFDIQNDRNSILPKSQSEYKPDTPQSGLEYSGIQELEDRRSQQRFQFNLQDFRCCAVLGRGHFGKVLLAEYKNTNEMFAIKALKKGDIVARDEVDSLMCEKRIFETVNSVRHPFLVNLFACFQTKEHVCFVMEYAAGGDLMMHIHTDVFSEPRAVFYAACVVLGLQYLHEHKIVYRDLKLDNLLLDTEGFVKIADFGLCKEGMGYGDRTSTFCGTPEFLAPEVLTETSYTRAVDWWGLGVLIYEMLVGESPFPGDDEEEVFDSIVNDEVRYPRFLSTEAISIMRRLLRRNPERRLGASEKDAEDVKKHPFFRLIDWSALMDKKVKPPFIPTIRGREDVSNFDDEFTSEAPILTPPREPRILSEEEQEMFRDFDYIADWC

CAMK1 = target: T4, CAMK1 (Homo sapiens, UniProt Q14012)
T4 construct: DNA label (qPCR read-out); purchased KINOMEscan (ScanMAX panel service)

TAOK1 = target: T5, TAOK1 (Homo sapiens, UniProt Q7L7X3)
T5 construct: DNA label (for qPCR read-out); purchased DiscoveRx (KINOMEscan scanMAX panel, contract assay)

GRK2 = target: T6, GRK2 (Homo sapiens, UniProt P25098)
T6 construct: DNA label (for qPCR read-out); purchased DiscoveRx (KINOMEscan scanMAX panel, contract assay)
T6 sequence (P25098 whole entry): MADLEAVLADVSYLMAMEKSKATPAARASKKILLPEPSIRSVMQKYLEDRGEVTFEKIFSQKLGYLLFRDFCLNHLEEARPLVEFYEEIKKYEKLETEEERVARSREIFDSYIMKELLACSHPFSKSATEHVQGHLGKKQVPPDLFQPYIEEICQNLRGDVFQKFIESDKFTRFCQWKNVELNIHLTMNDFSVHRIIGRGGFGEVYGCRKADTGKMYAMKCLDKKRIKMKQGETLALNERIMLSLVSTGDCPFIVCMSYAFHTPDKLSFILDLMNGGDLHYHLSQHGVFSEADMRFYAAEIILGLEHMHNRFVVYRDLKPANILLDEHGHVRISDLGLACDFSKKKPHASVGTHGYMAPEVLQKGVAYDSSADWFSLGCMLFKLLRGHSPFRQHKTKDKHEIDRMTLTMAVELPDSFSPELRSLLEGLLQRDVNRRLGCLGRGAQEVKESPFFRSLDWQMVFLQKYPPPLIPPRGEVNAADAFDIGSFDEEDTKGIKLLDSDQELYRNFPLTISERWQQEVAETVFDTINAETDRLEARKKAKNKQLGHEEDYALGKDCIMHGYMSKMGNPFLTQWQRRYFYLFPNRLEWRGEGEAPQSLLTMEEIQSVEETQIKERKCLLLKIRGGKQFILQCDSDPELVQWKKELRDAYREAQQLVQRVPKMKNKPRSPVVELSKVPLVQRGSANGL

KIT(V559D, T670I) = target: T7, KIT(V559D, T670I) (Homo sapiens, UniProt P10721, T670I/V559D)
T7 construct: purchased KINOMEscan (DiscoveRx) panel service

ULK1 = target: T8, ULK1 (Homo sapiens, UniProt O75385)
T8 construct: DNA label (for qPCR read-out); purchased DiscoveRx (KINOMEscan scanMAX panel)

HIPK2 = target: T9, HIPK2 (Homo sapiens, UniProt Q9H2X6)
T9 construct: DNA label (for qPCR read-out); purchased DiscoveRx (KINOMEscan scanMAX panel, contract assay)

[1] = target: ABL1(Y253F)-phosphorylated (Homo sapiens, UniProt P00519, Y253F)
PIP5K2B = target: T10, PIP5K2B (Homo sapiens, UniProt P78356)
T10 construct: DNA label (qPCR read-out); purchased KINOMEscan (DiscoveRx) panel

DYRK1B = target: T11, DYRK1B (Homo sapiens, UniProt Q9Y463)
T11 construct: DNA label (qPCR read-out); purchased KINOMEscan (DiscoveRx) panel

SIK2 = target: T12, SIK2 (Homo sapiens, UniProt Q9H0K1)
T12 construct: purchased KINOMEscan (DiscoveRx)

IRAK1 = target: T13, IRAK1 (Homo sapiens, UniProt P51617)
T13 construct: DNA label (qPCR read-out); purchased KINOMEscan (DiscoveRx) ScanMAX panel

IKK-alpha = target: T14, IKK-alpha (Homo sapiens, UniProt O15111)
T14 construct: DNA label (qPCR read-out); purchased KINOMEscan (DiscoveRx) ScanMAX panel

EIF2AK1 = target: T15, EIF2AK1 (Homo sapiens, UniProt Q9BQI3)
T15 construct: purchased DiscoveRx (KINOMEscan scanMAX panel)

WNK3 = target: T16, WNK3 (Homo sapiens, UniProt Q9BYP7)
T16 construct: purchased KINOMEscan (DiscoveRx) panel service

[2] = target: T17, JAK3(JH1domain-catalytic) (Homo sapiens, UniProt P52333)
T17 construct: JAK3(JH1domain-catalytic); DNA label (for qPCR read-out); purchased DiscoveRx (KINOMEscan scanMAX panel)
T17 sequence (P52333 822-1111 limits assumed): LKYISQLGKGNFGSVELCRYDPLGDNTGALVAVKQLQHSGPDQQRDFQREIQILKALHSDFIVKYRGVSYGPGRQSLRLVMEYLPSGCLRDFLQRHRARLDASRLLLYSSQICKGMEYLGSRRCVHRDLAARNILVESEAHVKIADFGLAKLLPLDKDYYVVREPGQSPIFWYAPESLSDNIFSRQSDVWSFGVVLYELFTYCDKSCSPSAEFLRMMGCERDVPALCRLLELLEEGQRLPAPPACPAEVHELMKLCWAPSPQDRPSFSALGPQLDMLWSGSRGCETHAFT

GSK3A = target: T18, GSK3A (Homo sapiens, UniProt P49840)
T18 construct: DNA label (qPCR read-out); purchased DiscoverX (assay service)

TEC = target: T19, TEC (Homo sapiens, UniProt P42680)
T19 construct: DNA label (for qPCR read-out); purchased DiscoveRx (KINOMEscan scanMAX panel, contract assay)

MUSK = target: T20, MUSK (Homo sapiens, UniProt O15146)
T20 construct: DNA label (for qPCR read-out); purchased KINOMEscan scanMAX panel (DiscoveRx)

HIPK4 = target: T21, HIPK4 (Homo sapiens, UniProt Q8NE63)
T21 construct: DNA label (for qPCR read-out); purchased DiscoveRx (KINOMEscan scanMAX panel, contract assay)

FGFR3 = target: T22, FGFR3 (Homo sapiens, UniProt P22607)
T22 construct: purchased DiscoveRx (KINOMEscan scanMAX panel)
T22 sequence (P22607 23-806): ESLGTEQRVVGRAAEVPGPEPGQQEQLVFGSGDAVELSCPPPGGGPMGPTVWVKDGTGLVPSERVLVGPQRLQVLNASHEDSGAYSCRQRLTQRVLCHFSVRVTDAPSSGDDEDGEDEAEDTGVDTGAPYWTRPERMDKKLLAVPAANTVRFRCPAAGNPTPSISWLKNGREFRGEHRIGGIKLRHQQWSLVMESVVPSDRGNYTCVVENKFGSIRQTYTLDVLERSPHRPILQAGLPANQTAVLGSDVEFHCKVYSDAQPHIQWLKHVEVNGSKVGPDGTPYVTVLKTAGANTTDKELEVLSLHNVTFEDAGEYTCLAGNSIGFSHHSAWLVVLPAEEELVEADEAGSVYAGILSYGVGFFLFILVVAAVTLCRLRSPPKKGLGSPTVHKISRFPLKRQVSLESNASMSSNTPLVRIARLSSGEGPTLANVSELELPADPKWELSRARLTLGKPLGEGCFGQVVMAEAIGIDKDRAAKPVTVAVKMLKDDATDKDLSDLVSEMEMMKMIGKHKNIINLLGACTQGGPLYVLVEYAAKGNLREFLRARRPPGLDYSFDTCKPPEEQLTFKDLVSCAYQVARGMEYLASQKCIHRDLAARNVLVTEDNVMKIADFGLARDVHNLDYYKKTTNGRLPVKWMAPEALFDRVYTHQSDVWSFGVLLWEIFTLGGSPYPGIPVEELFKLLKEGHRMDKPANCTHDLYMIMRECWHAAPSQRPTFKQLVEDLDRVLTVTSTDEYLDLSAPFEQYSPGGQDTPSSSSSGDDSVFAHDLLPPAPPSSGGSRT

PIK3CA(Q546K) = target: T23, PIK3CA(Q546K) (Homo sapiens, UniProt P42336, Q546K)
T23 construct: DNA label; purchased DiscoveRx (KINOMEscan scanMAX panel)
T23 sequence (P42336 whole entry Q546K): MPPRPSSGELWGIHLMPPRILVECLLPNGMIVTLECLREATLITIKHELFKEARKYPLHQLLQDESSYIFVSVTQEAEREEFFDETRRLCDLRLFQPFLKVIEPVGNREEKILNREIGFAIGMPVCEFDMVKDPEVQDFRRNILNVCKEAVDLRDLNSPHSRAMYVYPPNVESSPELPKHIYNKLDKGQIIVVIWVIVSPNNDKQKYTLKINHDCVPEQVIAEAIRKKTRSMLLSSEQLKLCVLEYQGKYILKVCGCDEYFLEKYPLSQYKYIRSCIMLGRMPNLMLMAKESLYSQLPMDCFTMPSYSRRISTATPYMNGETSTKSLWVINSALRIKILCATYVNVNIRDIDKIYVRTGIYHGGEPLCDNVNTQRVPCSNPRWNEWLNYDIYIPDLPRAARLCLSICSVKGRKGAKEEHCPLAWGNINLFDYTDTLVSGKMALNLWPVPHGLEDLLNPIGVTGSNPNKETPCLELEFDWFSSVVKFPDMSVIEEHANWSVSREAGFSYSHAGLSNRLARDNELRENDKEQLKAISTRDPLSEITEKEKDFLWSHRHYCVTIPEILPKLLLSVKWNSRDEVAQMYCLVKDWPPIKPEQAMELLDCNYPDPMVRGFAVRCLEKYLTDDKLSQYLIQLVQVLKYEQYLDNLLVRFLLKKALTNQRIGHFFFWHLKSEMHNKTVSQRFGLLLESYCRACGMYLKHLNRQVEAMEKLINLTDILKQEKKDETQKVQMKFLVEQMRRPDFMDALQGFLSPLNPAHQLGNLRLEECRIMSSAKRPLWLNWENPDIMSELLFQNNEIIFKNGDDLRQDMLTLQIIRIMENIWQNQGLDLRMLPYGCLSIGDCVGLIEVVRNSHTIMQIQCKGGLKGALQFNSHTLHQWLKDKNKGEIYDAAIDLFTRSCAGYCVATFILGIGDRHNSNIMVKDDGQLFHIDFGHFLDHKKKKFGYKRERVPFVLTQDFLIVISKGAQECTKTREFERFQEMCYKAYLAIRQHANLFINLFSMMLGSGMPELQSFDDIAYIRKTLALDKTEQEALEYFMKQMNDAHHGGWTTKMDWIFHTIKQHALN

[3] = target: T24, RPS6KA4(Kin.Dom.2-C-terminal) (Homo sapiens, UniProt O75676)
T24 construct: Kin.Dom.2; DNA label (qPCR read-out); purchased DiscoveRx (KINOMEscan ScanMAX panel)

ERK3 = target: T25, ERK3 (Homo sapiens, UniProt Q16659)
T25 construct: DNA label (qPCR read-out); purchased DiscoveRx (KINOMEscan ScanMAX panel)

[4] = target: T26, RPS6KA4(Kin.Dom.1-N-terminal) (Homo sapiens, UniProt O75676)
T26 construct: Kin.Dom.1; DNA label (qPCR read-out); purchased DiscoveRx (KINOMEscan ScanMAX panel)

CAMKK2 = target: T27, CAMKK2 (Homo sapiens, UniProt Q96RR4)
T27 construct: DNA label (qPCR read-out); purchased KINOMEscan (ScanMAX panel service)

PIP5K2C = target: T28, PIP5K2C (Homo sapiens, UniProt Q8TBX8)
T28 construct: DNA label (qPCR read-out); purchased KINOMEscan (DiscoveRx) panel

NIM1 = target: T29, NIM1 (Homo sapiens, UniProt Q8IY84)
T29 construct: DNA label (qPCR read-out); purchased KINOMEscan (ScanMAX panel service)
T29 sequence (Q8IY84 whole entry): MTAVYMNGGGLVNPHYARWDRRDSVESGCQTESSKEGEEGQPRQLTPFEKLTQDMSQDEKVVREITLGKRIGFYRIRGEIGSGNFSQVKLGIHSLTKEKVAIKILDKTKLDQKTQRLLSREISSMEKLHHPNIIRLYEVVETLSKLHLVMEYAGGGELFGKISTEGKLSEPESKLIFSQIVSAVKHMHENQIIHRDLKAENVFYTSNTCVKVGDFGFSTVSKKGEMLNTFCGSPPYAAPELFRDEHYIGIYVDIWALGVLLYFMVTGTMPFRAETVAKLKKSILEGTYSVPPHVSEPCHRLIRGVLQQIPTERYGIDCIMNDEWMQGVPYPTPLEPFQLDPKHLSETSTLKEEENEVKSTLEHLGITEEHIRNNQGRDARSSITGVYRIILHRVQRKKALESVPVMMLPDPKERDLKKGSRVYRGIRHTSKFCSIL

CSNK1G1 = target: T30, CSNK1G1 (Homo sapiens, UniProt Q9HCP0)
T30 construct: DNA label; purchased DiscoveRx (KINOMEscan scanMAX panel)

WNK4 = target: T31, WNK4 (Homo sapiens, UniProt Q96J92)
T31 construct: purchased KINOMEscan (DiscoveRx) panel service

[5] = target: T32, RSK1(Kin.Dom.2-C-terminal) (Homo sapiens, UniProt Q15418)
T32 construct: RSK1(Kin.Dom.2); purchased DiscoveRx (KINOMEscan scanMAX panel)

JNK1 = target: T33, JNK1 (Homo sapiens, UniProt P45983)
T33 construct: DNA label (for qPCR read-out); purchased DiscoveRx (KINOMEscan scanMAX panel)

Structure (SMILES) | % Ctrl (CDK3) [% Ctrl] | % Ctrl (PLK3) [% Ctrl] | % Ctrl (PKN2) [% Ctrl] | % Ctrl (CAMK1) [% Ctrl] | % Ctrl (TAOK1) [% Ctrl] | % Ctrl (GRK2) [% Ctrl] | % Ctrl (KIT(V559D, T670I)) [% Ctrl] | % Ctrl (ULK1) [% Ctrl] | % Ctrl (HIPK2) [% Ctrl] | % Ctrl [1] [% Ctrl] | % Ctrl (PIP5K2B) [% Ctrl] | % Ctrl (DYRK1B) [% Ctrl] | % Ctrl (SIK2) [% Ctrl] | % Ctrl (IRAK1) [% Ctrl] | % Ctrl (IKK-alpha) [% Ctrl] | % Ctrl (EIF2AK1) [% Ctrl] | % Ctrl (WNK3) [% Ctrl] | % Ctrl [2] [% Ctrl] | % Ctrl (GSK3A) [% Ctrl] | % Ctrl (TEC) [% Ctrl] | further results
[2H]C([2H])([2H])N(C(=O)c1ccc(N2CCCN(c3ccnc4sc(C(N)=O)c(N)c34)CC2)cc1)C([2H])([2H])[2H] [15u_D6, 3-amino-4-(4-(4-(bis(methyl-d3)carbamoyl)phenyl)-1,4-diazepan-1-yl)thieno[2,3-b]pyridine-2-carboxamide] | 97 | 90 | 100 | 95 | 73 | 70 | 96 | 72 | 81 | 81 | 95 | 100 | 100 | 84 | 90 | 78 | 100 | 80 | 34 | 81 | % Ctrl (MUSK): 82 % Ctrl; % Ctrl (HIPK4): 100 % Ctrl; % Ctrl (FGFR3): 99 % Ctrl; % Ctrl (PIK3CA(Q546K)): 72 % Ctrl; % Ctrl [3]: 74 % Ctrl; % Ctrl (ERK3): 94 % Ctrl; % Ctrl [4]: 100 % Ctrl; % Ctrl (CAMKK2): 87 % Ctrl; % Ctrl (PIP5K2C): 64 % Ctrl; % Ctrl (NIM1): 78 % Ctrl; % Ctrl (CSNK1G1): 80 % Ctrl; % Ctrl (WNK4): 98 % Ctrl; % Ctrl [5]: 86 % Ctrl; % Ctrl (JNK1): 30 % Ctrl
CN(C)C(=O)c1ccc(N2CCCN(c3ccnc4sc(C(N)=O)c(N)c34)CC2)cc1 [15u, 3-amino-4-(4-(4-(dimethylcarbamoyl)phenyl)-1,4-diazepan-1-yl)thieno[2,3-b]pyridine-2-carboxamide] | 92 | 86 | 100 | 83 | 100 | 88 | 100 | 96 | 100 | 100 | 92 | 69 | 96 | 94 | 77 | 93 | 97 | 83 | 31 | 91 | % Ctrl (MUSK): 94 % Ctrl; % Ctrl (HIPK4): 100 % Ctrl; % Ctrl (FGFR3): 98 % Ctrl; % Ctrl (PIK3CA(Q546K)): 66 % Ctrl; % Ctrl [3]: 100 % Ctrl; % Ctrl (ERK3): 88 % Ctrl; % Ctrl [4]: 96 % Ctrl; % Ctrl (CAMKK2): 100 % Ctrl; % Ctrl (PIP5K2C): 80 % Ctrl; % Ctrl (NIM1): 56 % Ctrl; % Ctrl (CSNK1G1): 90 % Ctrl; % Ctrl (WNK4): 60 % Ctrl; % Ctrl [5]: 100 % Ctrl; % Ctrl (JNK1): 68 % Ctrl
